The values that follow come from US20120020876A1, “HEDGEHOG PATHWAY INHIBITORS” (priority 2009, published 2012).

A short description of data set [1]: Gd-DTPA delivery by DCE-MRI. The format is in vivo, mouse. The conditions noted are these: 0.1 mmol/kg Gd-DTPA. How it is done:
Magnetic resonance imaging experiments were carried out on a Varian MRI system (Varian, Inc, Palo Alto, Calif., USA) equipped with a 9.4T horizontal bore cryo-cooled superconducting magnet of 210 mm bore and a gradient set of strength 40 G/cm, 120 μsec risetime and internal diameter 120 mm. The imaging probe used was a Varian Millipede of 40 mm internal diameter. Mice were anaesthetized with Hypnorm/Hypnovel. Anatomical images were obtained using coronal T2-weighted fast spin-echo (repetition time TR=2000 ms, effective echo time TE=25 ms, echo train length 8 echoes, 512×512 points, field of view 80×80 mm, slice thickness/gap 1.5/0.5 mm, 12-15 slices) with chemical shift-selective fat suppression and respiratory gating. All other images were matched to the slice positions and field of view of the anatomical images. […] DCE-MRI data were analyzed in software custom-written in MATLAB 7.4 (The Mathworks, Inc, Natick, Mass., USA) using the model of Tofts and Kermode to evaluate the pharmacokinetic parameters Ktrans and ve, and additionally calculating the area under the [gadolinium]-time curve over the first 60 seconds post-injection (IAUGC60), as recommended by a panel of experts for vascular-related studies in oncology.

A short description of data set [2]: Vascular labeling and drug diffusion: doxorubicin delivery by confocal microscopy. It is filed as in vivo, mouse. The conditions noted are these: in comparison to control tissues and transplanted tumors; i.v. with lectin. How it is done: To assess the functional vasculature, biotin-conjugated Lycopersicon esculentum lectin (B1175-1 mg, Vector Laboratories) was resuspended in 425 μL PBS and mixed with 75 μL of 1 mg/mL Streptavidin-AlexaFluor 633 (S21375, Molecular Probes) (in sterile PBS). Prior to use, the lectin-avidin mixture was centrifuged 14,000 k on a microfuge for 10 minutes to remove any particulate. Fifteen minutes prior to euthanasia, 100 μl (0.4 mg total) of the conjugated lectin was administered as a slow intravenous infusion over 5 minutes, and the hemodynamics monitored closely to ensure that it was tolerated. For doxorubicin experiments, five minutes prior to euthanasia mice were also infused with a 20 mg/kg doxorubicin solution (D-1515.10 mg, in sterile saline, Sigma) over one minute.
While under terminal anesthesia, mice were perfused with 4% paraformaldehyde in PBS, pH 7.4. Perfused tissues were harvested, fixed overnight in 4% paraformaldehyde in PBS, pH 7.4 and transferred to 70% ethanol. Tissues were embedded in paraffin, sectioned, rehydrated, and counterstained with DAPI. The lectin labeling experiments were reproduced independently in a second laboratory (SRH, KI).
Mice were infused with 30 ml of 4% PFA pH 7.4 using a Harvard Apparatus PhD 2000 syringe pump at a rate of […]. […] Doxorubicin fluorescence was excited with a 488 nm laser, and emission was detected in a range from 520-620 nm. […]

Turning to `O=C([O-])CN(CCN(CC(=O)[O-])CC(=O)O)CCN(CC(=O)[O-])CC(=O)O.[Gd+3]` [Gd-DTPA, gadolinium-diethyltriaminepentaacetic acid], in data set [1], the “Gd-DTPA enhancement within KPC tumors” value was “little or no enhancement within the tumor body”.

Regarding `COc1cccc2c1C(=O)c1c(O)c3c(c(O)c1C2=O)C[C@@](O)(C(=O)CO)C[C@@H]3O[C@H]1C[C@H](N)[C@H](O)[C@H](C)O1` [doxorubicin], the “doxorubicin delivery to KPC pancreatic tumors” value in data set [2] is recorded as “marked decrease in doxorubicin delivery”.
